From ChEMBL document CHEMBL4177603 (Bioorg Med Chem Lett, 2017)
≈ marks a conversion by molar mass, not a printed value.

What was measured:
[1] = target: T1, Sodium channel protein type 9 subunit alpha (Homo sapiens, UniProt Q15858); experiment: Inhibition of human Nav1.7 expressed in HEK cells by automated patchXpress electrophysiology method; format: cell-based
[2] = target: Sodium channel protein type 5 subunit alpha (Homo sapiens, UniProt Q14524); experiment: Inhibition of human Nav1.5 expressed in HEK cells by automated patchXpress electrophysiology method; format: ADME, cell-based
Sodium channel protein type 5 subunit alpha, sequence (Q14524 whole entry): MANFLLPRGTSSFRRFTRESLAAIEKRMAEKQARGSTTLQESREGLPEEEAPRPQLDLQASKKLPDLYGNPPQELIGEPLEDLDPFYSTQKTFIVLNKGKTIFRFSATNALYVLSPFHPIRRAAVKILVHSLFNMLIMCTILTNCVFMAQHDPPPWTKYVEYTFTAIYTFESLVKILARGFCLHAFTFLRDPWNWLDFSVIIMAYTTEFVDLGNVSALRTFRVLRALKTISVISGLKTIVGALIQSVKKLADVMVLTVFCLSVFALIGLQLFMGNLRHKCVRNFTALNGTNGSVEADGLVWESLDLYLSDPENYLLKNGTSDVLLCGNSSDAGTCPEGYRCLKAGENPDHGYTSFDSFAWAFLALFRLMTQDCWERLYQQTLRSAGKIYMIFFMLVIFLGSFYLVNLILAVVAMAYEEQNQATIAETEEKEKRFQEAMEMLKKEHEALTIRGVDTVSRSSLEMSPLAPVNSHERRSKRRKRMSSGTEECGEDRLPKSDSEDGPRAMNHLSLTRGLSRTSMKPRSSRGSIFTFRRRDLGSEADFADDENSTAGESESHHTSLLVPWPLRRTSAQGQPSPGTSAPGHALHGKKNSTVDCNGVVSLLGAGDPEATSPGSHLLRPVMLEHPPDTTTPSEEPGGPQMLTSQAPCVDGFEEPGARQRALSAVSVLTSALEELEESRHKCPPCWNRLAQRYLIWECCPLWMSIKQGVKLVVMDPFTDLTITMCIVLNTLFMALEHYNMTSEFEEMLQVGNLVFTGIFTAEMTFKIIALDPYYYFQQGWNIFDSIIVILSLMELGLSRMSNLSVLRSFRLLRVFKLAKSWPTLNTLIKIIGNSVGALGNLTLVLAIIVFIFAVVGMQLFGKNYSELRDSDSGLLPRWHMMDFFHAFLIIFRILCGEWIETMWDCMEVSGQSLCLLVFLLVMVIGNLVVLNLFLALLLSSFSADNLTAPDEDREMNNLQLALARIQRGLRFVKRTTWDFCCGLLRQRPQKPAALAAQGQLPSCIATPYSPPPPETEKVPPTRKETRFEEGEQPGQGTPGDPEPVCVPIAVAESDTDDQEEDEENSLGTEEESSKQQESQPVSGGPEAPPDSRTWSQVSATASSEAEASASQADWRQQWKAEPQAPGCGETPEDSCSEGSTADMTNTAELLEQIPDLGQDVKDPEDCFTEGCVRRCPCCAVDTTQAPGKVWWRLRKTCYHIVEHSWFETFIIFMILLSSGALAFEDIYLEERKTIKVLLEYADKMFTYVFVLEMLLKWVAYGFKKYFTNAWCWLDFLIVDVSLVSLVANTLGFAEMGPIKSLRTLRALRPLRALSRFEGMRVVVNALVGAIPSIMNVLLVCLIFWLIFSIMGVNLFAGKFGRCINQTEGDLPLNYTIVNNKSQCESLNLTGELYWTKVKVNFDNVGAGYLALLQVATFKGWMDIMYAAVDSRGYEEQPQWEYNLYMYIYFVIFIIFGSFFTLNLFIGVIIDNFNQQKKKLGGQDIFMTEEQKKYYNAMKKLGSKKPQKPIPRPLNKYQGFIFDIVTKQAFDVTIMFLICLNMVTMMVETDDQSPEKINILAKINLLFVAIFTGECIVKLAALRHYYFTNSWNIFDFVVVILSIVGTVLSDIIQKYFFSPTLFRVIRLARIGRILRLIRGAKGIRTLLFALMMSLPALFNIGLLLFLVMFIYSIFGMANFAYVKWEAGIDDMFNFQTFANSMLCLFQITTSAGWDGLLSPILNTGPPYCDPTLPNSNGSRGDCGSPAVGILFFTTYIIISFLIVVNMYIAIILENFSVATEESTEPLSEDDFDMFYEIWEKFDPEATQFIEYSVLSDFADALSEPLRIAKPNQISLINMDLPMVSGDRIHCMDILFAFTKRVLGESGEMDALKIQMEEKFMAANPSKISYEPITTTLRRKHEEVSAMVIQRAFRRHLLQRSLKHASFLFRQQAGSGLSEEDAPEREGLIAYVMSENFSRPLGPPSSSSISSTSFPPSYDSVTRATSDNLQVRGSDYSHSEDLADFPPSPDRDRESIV

[3] = target: T1, Sodium channel protein type 9 subunit alpha; experiment: Inhibition of human Nav1.7 expressed in HEK cells by patch clamp electrophysiology method; format: cell-based
[4] = Solubility of the compound in aqueous buffer at pH 4.2; format: physicochemical
[5] = Solubility of the compound in aqueous buffer at pH 5.1; format: physicochemical
[6] = Solubility of the compound in aqueous buffer at pH 7.2; format: physicochemical
[7] = Solubility of the compound in aqueous buffer at pH 3; format: physicochemical

T1 sequence (Q15858 whole entry): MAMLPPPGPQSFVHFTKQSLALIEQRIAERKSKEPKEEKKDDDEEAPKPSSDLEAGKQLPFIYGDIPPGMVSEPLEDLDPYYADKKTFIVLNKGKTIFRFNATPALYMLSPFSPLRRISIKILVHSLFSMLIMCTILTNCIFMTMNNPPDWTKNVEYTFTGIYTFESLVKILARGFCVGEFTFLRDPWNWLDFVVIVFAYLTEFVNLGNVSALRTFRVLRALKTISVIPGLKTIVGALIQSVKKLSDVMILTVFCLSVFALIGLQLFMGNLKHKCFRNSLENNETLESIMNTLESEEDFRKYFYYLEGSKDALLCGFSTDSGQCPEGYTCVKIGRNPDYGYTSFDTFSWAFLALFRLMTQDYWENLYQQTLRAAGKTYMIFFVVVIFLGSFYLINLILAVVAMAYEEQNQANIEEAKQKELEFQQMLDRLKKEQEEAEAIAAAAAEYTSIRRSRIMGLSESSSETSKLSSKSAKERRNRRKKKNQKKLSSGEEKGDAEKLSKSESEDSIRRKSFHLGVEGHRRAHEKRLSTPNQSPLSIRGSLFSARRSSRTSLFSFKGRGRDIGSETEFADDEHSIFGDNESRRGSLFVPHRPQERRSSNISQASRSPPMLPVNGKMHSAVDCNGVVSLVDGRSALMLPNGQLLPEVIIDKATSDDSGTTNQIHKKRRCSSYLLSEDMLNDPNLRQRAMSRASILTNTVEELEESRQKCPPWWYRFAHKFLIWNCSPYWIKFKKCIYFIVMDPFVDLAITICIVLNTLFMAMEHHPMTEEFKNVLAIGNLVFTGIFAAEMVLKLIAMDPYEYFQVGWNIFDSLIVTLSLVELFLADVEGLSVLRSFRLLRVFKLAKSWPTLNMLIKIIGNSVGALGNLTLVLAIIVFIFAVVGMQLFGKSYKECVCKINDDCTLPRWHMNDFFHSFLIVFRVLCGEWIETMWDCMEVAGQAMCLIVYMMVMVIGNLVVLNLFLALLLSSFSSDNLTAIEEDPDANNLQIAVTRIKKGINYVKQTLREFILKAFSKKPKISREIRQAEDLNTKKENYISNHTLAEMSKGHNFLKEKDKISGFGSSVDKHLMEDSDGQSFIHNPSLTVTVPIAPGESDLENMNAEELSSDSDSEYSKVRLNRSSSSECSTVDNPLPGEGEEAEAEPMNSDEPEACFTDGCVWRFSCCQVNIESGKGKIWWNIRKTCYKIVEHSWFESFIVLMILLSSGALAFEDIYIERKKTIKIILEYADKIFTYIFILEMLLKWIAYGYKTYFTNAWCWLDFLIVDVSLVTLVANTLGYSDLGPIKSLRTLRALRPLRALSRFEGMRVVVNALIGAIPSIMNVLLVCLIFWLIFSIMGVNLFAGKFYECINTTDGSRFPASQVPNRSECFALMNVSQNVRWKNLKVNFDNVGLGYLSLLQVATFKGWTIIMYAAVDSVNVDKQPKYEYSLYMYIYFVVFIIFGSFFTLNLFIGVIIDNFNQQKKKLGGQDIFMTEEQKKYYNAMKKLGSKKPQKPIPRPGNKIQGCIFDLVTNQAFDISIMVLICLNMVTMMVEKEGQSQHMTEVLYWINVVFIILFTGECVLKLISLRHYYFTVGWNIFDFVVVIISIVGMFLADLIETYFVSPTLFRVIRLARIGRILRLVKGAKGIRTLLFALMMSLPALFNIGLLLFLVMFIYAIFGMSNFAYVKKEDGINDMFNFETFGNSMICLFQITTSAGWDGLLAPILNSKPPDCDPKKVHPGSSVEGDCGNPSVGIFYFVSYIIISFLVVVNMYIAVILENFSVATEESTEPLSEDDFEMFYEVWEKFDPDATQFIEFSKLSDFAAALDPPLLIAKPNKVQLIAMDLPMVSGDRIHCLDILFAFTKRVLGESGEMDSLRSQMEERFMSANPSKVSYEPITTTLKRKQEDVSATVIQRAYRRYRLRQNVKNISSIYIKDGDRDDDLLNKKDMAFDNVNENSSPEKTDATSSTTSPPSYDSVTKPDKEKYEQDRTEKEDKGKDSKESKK

SMILES	IC50 [1] [nM]	IC50 [3] [nM]	also measured
COCCOCCOCCOCCOCCOCCOCCOCCOCCOCCOCCOCCC(=O)N1CCC(CCNCc2cc(-c3cc(-c4cccc(C(F)(F)F)c4)ccc3Oc3ccc(S(=O)(=O)Nc4ncns4)cc3C#N)ccn2)CC1	< 10		IC50 [2]: > 3000 nM
N#Cc1cc(S(=O)(=O)Nc2ncns2)ccc1Oc1ccc(-c2cccc(C(F)(F)F)c2)cc1-c1ccnc(CN)c1		0.1	
O=S(=O)(Nc1cscn1)c1cc(Cl)c(Oc2ccc(Cl)cc2-c2ccnc(CN3CCC3)c2)cc1F	13.2		
Cc1cc(C)n2c1C=C1C=CC(CCCCC(=O)NCCOCCOCCC(=O)N3CCC(CCNCc4cc(-c5cc(-c6cccc(C(F)(F)F)c6)ccc5Oc5ccc(S(=O)(=O)Nc6ncns6)cc5C#N)ccn4)CC3)=[N+]1[B-]2(F)F		0.12	
N#Cc1cc(S(=O)(=O)Nc2ncns2)ccc1Oc1ccc(Cl)cc1-c1cccc(CNCCC2CCNCC2)c1	0.7		
NCc1cc(-c2cc(-c3cccc(C(F)(F)F)c3)ccc2Oc2cc(F)c(S(=O)(=O)Nc3nncs3)cc2Cl)ccn1			solubility [4]: < 0.5 µg/mL; solubility [5]: < 0.5 µg/mL; solubility [6]: < 0.5 µg/mL; solubility [7]: 6 µg/mL (≈ 9.43 µM)
CC(=O)N1CCC(CCNCc2cc(-c3cc(-c4cccc(C(F)(F)F)c4)ccc3Oc3ccc(S(=O)(=O)Nc4ncns4)cc3C#N)ccn2)CC1	< 4		
C#CCCOc1ccc(C(=O)c2ccc(CCC(=O)N3CCC(CCNCc4cc(-c5cc(-c6cccc(C(F)(F)F)c6)ccc5Oc5ccc(S(=O)(=O)Nc6ncns6)cc5C#N)ccn4)CC3)cc2)cc1		0.1	
N#Cc1cc(S(=O)(=O)Nc2ncns2)ccc1Oc1ccc(Cl)cc1-c1cccc(CN)c1	8.5		
O=S(=O)(Nc1nncs1)c1cc(Cl)c(Oc2ccc(Cl)cc2-c2ccnc(CN3CCC3)c2)cc1F	4.8		
